Results from patent publication US5877026A, “Analgesic peptides from venom of Grammostola spatulata and use thereof” (priority 1998, dated 1999).
Where no end group is shown, it is not given here.

Assays:
Format in all cases: in vivo, rat
Sprague-Dawley rats [1] = test: Hot plate threshold
Experimental: This test measures the temperature at which point a rat voluntarily removes one of its hindlimbs from the heated surface and either shakes or lick the affected appendage. The temperature of the heated surface is pre-set to the experimentally deduced value of 38° C. and a maximum cutoff value of either 53° C. or 54° C. has been used. Data is expressed either as absolute temperature in degrees C. or as percentage maximal possible effect as described by the formula [formula] (54 is substituted for 53 in the above formula if it is the maximal value.)
(§1) With minimal restraint, peptide GsAF I was injected intrathecally (i.th.) into young (75-150 gram) male Sprague-Dawley rats (Charles Rivers Laboratories, Wilmington, Mass.) into the spinal subarachnoid space between lumbar spinous processes L4 and L5 using 10 microliter Hamilton syringes equipped with 3/8 inch by 28G needles. Dosing levels were based upon concentrations deduced from ultraviolet absorbance values at 280 nm using an extinction coefficient of 18710. Injection volume was 10 microliters. The injection vehicle was saline or 0.1 %bovine serum albumin(BSA)/saline. The rats were pretreated with GsAF I 30 minutes prior to exposure to heat.
as §1, with “GsAF II” for “GsAF I”, “or 0.1% bovine” for “or 0.1 %bovine”, “GsAF II 15” for “GsAF I 30”

Sprague-Dawley rats [2] = test: Formalin pain test; settings: for Acute Flinches, % control / Acute Flinches, absolute level: 0-5 minutes post formalin; for Tonic Flinches, % control / Tonic Flinches, absolute level / Tonic Licking, % control / Tonic Licking, absolute level: 20-35 minutes post formalin
Experimental: The noxious stimulus for this test is the sub-cutaneous injection of a 5% solution of formalin into the dorsal surface of one of the hindlimbs of the animal. Motor activity indices used in this test are 1) the total time spent licking that appendage and 2) the total number of flinching/shaking responses of the affected appendage. Data collection is initiated immediately upon injection of the formalin solution into the limb. The acute phase response is defined by the time interval of 0-5 minutes post formalin injection. The tonic phase response is defined by the interval of 20-35 minutes post formalin injection Data collection is done in a computerized format. Expression of the data is done using either absolute values or as percent control which is defined by the level of response following injection of saline vehicle.
as §1, with “0.1% bovine” for “0.1 %bovine”, “injection with the formalin solution.” for “exposure to heat.”
as §1, with “GsAF II” for “GsAF I”, “nm as stated previously. Based upon a mass” for “nm using an extinction coefficient”, “of 3980 Da, 583 pmoles corresponds to 2.3 micrograms of GsAF II, and 2.33 nmoles corresponds to 9.3 micrograms of GsAF II.” for “of 18710.”, “0.1 % bovine” for “0.1 %bovine”, “GsAF II 15” for “GsAF I 30”, “to injection with formalin.” for “to exposure to heat.”
In addition to the above analyses, 180 pmoles (666 nanograms) of GsAF I was administered 5 minutes after injection of 5% formalin and the tonic phase responses were recorded as described previously. The highly efficacious activity of GsAF I was retained. Tonic flinch response was inhibited 86% (i.e. 14% of control) and tonic lick duration was reduced 91 % (i.e. 9% of control). This property has only been reported for strong analgesic compounds that interact with μ-opioid receptors.

Sprague-Dawley rats [3] = test: Tail flick latency
From the text: This test measures the time interval required for a rat to withdraw its tail, via a spinally mediated reflex mechanism, from a high intensity light source (IITC Inc./Life Sciences Instruments, Woodland Hills, Calif. 91367) focally applied to the dorsal surface of the appendage. The intensity of the light beam has been experimentally defined such that naive animals will withdraw their tails within 2 to 4 seconds. A maximum cut off time for the light source has been set at ten seconds to reduce the amount of secondary tissue damage.
Data is expressed either as absolute time or a percentage of the maximal possible effect (MPE) which is described by the following equation where 10 seconds is the maximum: [formula] (Latency refers to the amount of time before the animal removed its appendage from the light source.)
as §1, with “Mass. 01887). I.th. injections were made” for “Mass.)”, “0.1% bovine” for “0.1 %bovine”, “the light source.” for “heat.”
With minimal restraint, peptide GsAF II was injected intrathecally (i.th.) into young (75-150 gram) male Sprague-Dawley rats (Charles Rivers Laboratories, Wilmington, Mass.)) into the spinal subarachnoid space between lumbar spinous processes L4 and L5 using 10 microliter Hamilton syringes equipped with 3/8 inch by 28G needles. Dosing levels were based upon concentrations deduced from ultraviolet absorbance values at 280 nm using the deduced molar extinction coefficient of 24310. Injection volume was 10 microliters. The injection vehicle was saline or 0.1% bovine serum albumin(BSA)/saline. The rats were pretreated with GsAF II 15 minutes prior to exposure to the light source.

[4] = 1.8 pmoles i.th., 30 minutes pretreatment
[5] = 18 pmoles i.th., 30 minutes pretreatment
[6] = 180 pmoles (666 nanograms) administered 5 minutes after injection of 5% formalin
[7] = 180 pmoles i.th., 30 minutes pretreatment
[8] = 583 pmoles i.th., 15 minutes pretreatment
[9] = 2.33 nmoles i.th., 15 minutes pretreatment
[10] = 583 picomoles (2.33 micrograms) i.th., 15 minutes pretreatment

Substance: Tyr-Cys-Gln-Lys-Trp-Leu-Trp-Thr-Cys-Asp-Ser-Glu-Arg-Lys-Cys-Cys-Glu-Asp-Met-Val-Cys-Arg-Leu-Trp-Cys-Lys-Lys-Arg-Leu-NH2 (YCQKWLWTCDSERKCCEDMVCRLWCKKRL-NH2; cysteine pairing not given here) [GsAF I]
- MPE, hot plate threshold (Sprague-Dawley rats [1]; 18 picomoles (6.6 nanograms) i.th., one hour pretreatment): 24 % MPE
- activity in hot plate threshold (Sprague-Dawley rats [1]; 18 picomoles i.th., 30 minute pretreatment): loss of significant activity
- adverse motor effects (Sprague-Dawley rats [1]; 180 and 18 picomoles i.th.): No adverse motor effects were evident
- MPE, hot plate threshold (Sprague-Dawley rats [1]; 180 picomole (66 nanograms) i.th., one hour pretreatment): 91 % MPE
- MPE, hot plate threshold (Sprague-Dawley rats [1]; 180 picomoles (666 nanograms) i.th., 30 minute pretreatment): 70 % MPE
- Acute Flinches, % control (Sprague-Dawley rats [2]; [4]): 28%
- Acute Flinches, absolute level (Sprague-Dawley rats [2]; [4]): 12
- Tonic Flinches, % control (Sprague-Dawley rats [2]; [4]): 32%
- Tonic Flinches, absolute level (Sprague-Dawley rats [2]; [4]): 44.3
- Tonic Licking, % control (Sprague-Dawley rats [2]; [4]): 46%
- Tonic Licking, absolute level (Sprague-Dawley rats [2]; [4]): 84.3 s
- Acute Flinches, % control (Sprague-Dawley rats [2]; [5]): 20%
- Acute Flinches, absolute level (Sprague-Dawley rats [2]; [5]): 8.5
- Tonic Flinches, % control (Sprague-Dawley rats [2]; [5]): 21%
- Tonic Flinches, absolute level (Sprague-Dawley rats [2]; [5]): 29.5
- Tonic Licking, % control (Sprague-Dawley rats [2]; [5]): 8.4%
- Tonic Licking, absolute level (Sprague-Dawley rats [2]; [5]): 15.3 s
- Tonic flinch response, % of control (Sprague-Dawley rats [2]; [6]): 14 % of control
- Tonic flinch response, inhibition (Sprague-Dawley rats [2]; [6]): 86%
- tonic lick duration, % of control (Sprague-Dawley rats [2]; [6]): 9 % of control
- tonic lick duration, reduction (Sprague-Dawley rats [2]; [6]): 91%
- Acute Flinches, % control (Sprague-Dawley rats [2]; [7]): 8.9%
- Acute Flinches, absolute level (Sprague-Dawley rats [2]; [7]): 3.8
- Tonic Flinches, % control (Sprague-Dawley rats [2]; [7]): 3.0%
- Tonic Flinches, absolute level (Sprague-Dawley rats [2]; [7]): 4.3
- Tonic Licking, % control (Sprague-Dawley rats [2]; [7]): 0%
- Tonic Licking, absolute level (Sprague-Dawley rats [2]; [7]): 0 s
- activity in tail flick latency (Sprague-Dawley rats [3]; 1.8 picomoles (6.6 nanograms) i.th., 30 minutes pretreatment): inactive
- MPE, tail flick latency (Sprague-Dawley rats [3]; 18 picomoles (66 nanograms) i.th., 30 minutes pretreatment): 29 % MPE
- MPE, tail flick latency (Sprague-Dawley rats [3]; 180 picomoles (666 nanograms) i.th., 30 minutes pretreatment): 95 % MPE
- inhibition of the tail flick response (latency value greater than 10 seconds) (Sprague-Dawley rats [3]; 180 picomoles (666 nanograms) i.th., in most rats): Complete inhibition
- confounding side effects (motor disturbances, limb impairment/paralysis, righting reflex, sedation) (Sprague-Dawley rats [3]; 180 picomoles i.th.): either minimal or not present
- pretreatment time with maximal activity (Sprague-Dawley rats [3]; i.th., tail flick): 30 min

Substance: YCQKWMWTCDEERKCCEGLVCRLWCKKKIEW (cysteine pairing not given here) [GsAF II]
- MPE, hot plate threshold (Sprague-Dawley rats [1]; 2.33 nanomole (9.27 micrograms) i.th., 15 minutes pretreatment, all animals): 100 % MPE
- motor coordination problems (Sprague-Dawley rats [1]; 2.33 nanomole and 583 picomoles i.th.): No motor coordination problems were witnessed
- average MPE, hot plate threshold (Sprague-Dawley rats [1]; 583 picomoles (2.32 micrograms) i.th., 15 minutes pretreatment): 59%
- Acute Flinches, % control (Sprague-Dawley rats [2]; [8]): 41%
- Acute Flinches, absolute level (Sprague-Dawley rats [2]; [8]): 6.8
- Tonic Flinches, % control (Sprague-Dawley rats [2]; [8]): 9.5%
- Tonic Flinches, absolute level (Sprague-Dawley rats [2]; [8]): 8.2
- Tonic Licking, % control (Sprague-Dawley rats [2]; [8]): 8.2%
- Tonic Licking, absolute level (Sprague-Dawley rats [2]; [8]): 7.8 s
- Acute Flinches, % control (Sprague-Dawley rats [2]; [9]): 19%
- Acute Flinches, absolute level (Sprague-Dawley rats [2]; [9]): 3.25
- Tonic Flinches, % control (Sprague-Dawley rats [2]; [9]): 1.4%
- Tonic Flinches, absolute level (Sprague-Dawley rats [2]; [9]): 1.2
- Tonic Licking, % control (Sprague-Dawley rats [2]; [9]): 0%
- Tonic Licking, absolute level (Sprague-Dawley rats [2]; [9]): 0 s
- inhibition of the tail flick response (latency greater than ten seconds) (Sprague-Dawley rats [3]; 2.33 nanomoles (9.27 micrograms) i.th., 15 minutes pretreatment, all animals (n=8)): Complete inhibition
- confounding side effects (Sprague-Dawley rats [3]; 2.33 nanomoles and 583 picomoles i.th.): no confounding side effects were detected
- animals with 100% MPE, tail flick (Sprague-Dawley rats [3]; [10]): five of six
- average MPE, tail flick latency (Sprague-Dawley rats [3]; [10]): 92%
